# From patent publication US11345710B2, “Imidazo[1,2-b]pyrimido[4,5-d]pyridazin-5(6H)-ones and the use thereof” (IMPACT THERAPEUTICS (SHANGHAI), INC, priority 2017, dated 2022)
# Where two headings read alike, the source gives them in different places.
# How the values were obtained:
# Wee1 kinase (h) = Wee1 kinase (h) (Homo sapiens, UniProt P30291); assay: Wee1 kinase (h) detection method, [γ-33P]-ATP filter assay; assay type: biochemical; settings: 10 μM ATP, 40 minutes at room temperature
# Summary of the method: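 Radiometric filter-binding assay with human Wee1 in 20 mM Tris/HCl pH 8.5, 0.2 mM EDTA, 500 μM peptide substrate, 10 mM Mg acetate, 10 μM [γ-33P]-ATP; compounds at final 1, 0.1 or 0.01 μM. Reaction 40 min at room temperature, stopped with 0.5% phosphoric acid, spotted on P30 filtermat, scintillation counted, duplicates.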
# LoVo cells = assay: MTT based cell viability assay on LoVo cells; settings: Homo sapiens, 72 h, read-out: IC50, growth inhibition on LoVo cells
# NCI-H1299 cells = assay: MTT based cell viability assay on NCI-H1299 cells; settings: Homo sapiens, read-out: IC50, growth inhibition on NCI-H1299 cells
# Summary of the method: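 NCI-H1299 cells (1000/well) were plated overnight, then given a seven-point serial compound dilution plus DMSO control for 3 d at 37 °C, 5% CO2. Viability was read by MTT (0.5 mg/mL, 4 h, DMSO-solubilised) at 552/630/690 nm. IC50 came from a sigmoidal fit of survival versus concentration.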
# [1] = system: patients with advanced solid tumors; settings: cited from earlier work
# [2] = 72 h, NCI-H1299 cells, 3 d, MTT
# [3] = of 176 evaluable patients, alone or in combination with chemotherapy
# Chain of Wee1 kinase (h) (P30291 whole entry): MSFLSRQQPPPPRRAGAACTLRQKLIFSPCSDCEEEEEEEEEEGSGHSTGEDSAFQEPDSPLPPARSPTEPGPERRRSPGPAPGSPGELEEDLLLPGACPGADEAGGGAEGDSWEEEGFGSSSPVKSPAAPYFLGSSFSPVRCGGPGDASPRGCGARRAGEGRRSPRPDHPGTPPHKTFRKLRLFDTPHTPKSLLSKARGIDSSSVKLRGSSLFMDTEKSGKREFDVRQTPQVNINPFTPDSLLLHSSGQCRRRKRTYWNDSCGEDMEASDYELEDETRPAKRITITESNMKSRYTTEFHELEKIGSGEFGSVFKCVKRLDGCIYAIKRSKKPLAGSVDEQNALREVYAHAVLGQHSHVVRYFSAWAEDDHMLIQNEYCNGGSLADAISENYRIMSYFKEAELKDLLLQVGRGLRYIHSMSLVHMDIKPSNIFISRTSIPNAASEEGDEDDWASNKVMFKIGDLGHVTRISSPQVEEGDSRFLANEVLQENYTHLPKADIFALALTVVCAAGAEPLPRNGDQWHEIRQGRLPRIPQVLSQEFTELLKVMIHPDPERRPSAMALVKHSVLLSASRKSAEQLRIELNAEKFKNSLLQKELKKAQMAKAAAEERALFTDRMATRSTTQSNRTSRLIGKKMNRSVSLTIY
SMILES,Inh. (%) of Wee1 kinase (Wee1 kinase (h); C 1 μm) [%],"IC50 (LoVo cells; LoVo cells, 3 d, MTT) [µM]",IC50 (NCI-H1299 cells; [2]) [µM],Inh. (%) of Wee1 kinase (Wee1 kinase (h); C 0.01 μm) [%],IC50 (LoVo cells; LoVo) [µM],"IC50 (NCI-H1299 cells; NCI-H1299, 72 h) [µM]",further results
"Cc1cc(Nc2ncc3c(=O)n(-c4c(C)cccc4F)n4ccnc4c3n2)cc(Cl)c1N1CCN(C)CC1 [Example 52, 6-(2-fluoro-6-methylphenyl)-2-((3-chloro-5-methyl-4-(4-methylpiperazin-1-yl)phenyl)amino)imidazo[1,2-b]pyrimido[4,5-d]pyridazin-5(6H)-one]",78,0.756,0.809,,,,
"Cc1cc(Nc2ncc3c(=O)n(-c4c(F)cccc4F)n4ccnc4c3n2)cc(C)c1N1CCN(C)CC1 [Example 13, 6-(2,6-difluorophenyl)-2-((3,5-dimethyl-4-(4-methylpiperazin-1-yl)phenyl)amino)imidazo[1,2-b]pyrimido[4,5-d]pyridazin-5(6H)-one]",85,0.488,0.738,,,,
"Cc1cc(Nc2ncc3c(=O)n(-c4c(C)cccc4F)n4ccnc4c3n2)cc(C)c1N1CCN(C)CC1 [Example 15, 6-(2-fluoro-6-methylphenyl)-2-((3,5-dimethyl-4-(4-methylpiperazin-1-yl)phenyl)amino) imidazo[1,2-b]pyrimido[4,5-d]pyridazin-5(6H)-one]",87,0.832,0.904,,,,
"Cc1cccc(Cl)c1-n1c(=O)c2cnc(Nc3ccc(N4CCN(C)CC4)c(Cl)c3)nc2c2nccn21 [Example 53, 6-(2-chloro-6-methylphenyl)-2-((3-chloro-4-(4-methylpiperazin-1-yl)phenyl)amino)imidazo[1,2-b]pyrimido[4,5-d]pyridazin-5(6H)-one]",94,0.642,0.809,12,,,Inh. (%) of Wee1 kinase (Wee1 kinase (h); C 0.1 μm): 69%
"COc1cc(Nc2ncc3c(=O)n(-c4c(Cl)cccc4Cl)n4ccnc4c3n2)cc(Cl)c1N1CCC(N(C)C)CC1 [Example 38, 6-(2,6-dichlorophenyl)-2-((3-chloro-5-methoxy-4-(4-(dimethylamino)piperidin-1-yl)phenyl)amino)imidazo[1,2-b]pyrimido[4,5-d]pyridazin-5(6H)-one]",,,,11,0.416,0.978,
"Cc1cc(Nc2ncc3c(=O)n(-c4c(C)cccc4Cl)n4ccnc4c3n2)ccc1N1CCN(C)CC1 [Example 16, 6-(2-chloro-6-methylphenyl)-2-((3-methyl-4-(4-methylpiperazin-1-yl)phenyl)amino)imidazo[1,2-b]pyrimido[4,5-d]pyridazin-5(6H)-one]",93,0.424,0.365,22,,,Inh. (%) of Wee1 kinase (Wee1 kinase (h); C 0.1 μm): 73%
"CN1CCN(c2ccc(Nc3ncc4c(=O)n(-c5c(Cl)cccc5Cl)n5ccnc5c4n3)cc2Cl)CC1 [Example 27, 6-(2,6-dichlorophenyl)-2-((3-chloro-4-(4-methylpiperazin-1-yl)phenyl)amino)imidazo[1,2-b]pyrimido[4,5-d]pyridazin-5(6H)-one]",97,,,17,0.369,0.47,Inh. (%) of Wee1 kinase (Wee1 kinase (h); C 0.1 μm): 76%
"Cc1cc(Nc2ncc3c(=O)n(-c4c(C)cccc4Cl)n4ccnc4c3n2)cc(C)c1N1CCN(C)CC1 [Example 17, 6-(2-chloro-6-methylphenyl)-2-((3,5-dimethyl-4-(4-methylpiperazin-1-yl)phenyl)amino)imidazo[1,2-b]pyrimido[4,5-d]pyridazin-5(6H)-one]",96,0.902,0.802,5,,,Inh. (%) of Wee1 kinase (Wee1 kinase (h); C 0.1 μm): 56%
"Cc1cc(Nc2ncc3c(=O)n(-c4c(Cl)cccc4Cl)n4ccnc4c3n2)ccc1N1CCNCC1 [Example 26, 6-(2,6-dichlorophenyl)-2-((3-methyl-4-(piperazin-1-yl)phenyl)amino)imidazo[1,2-b]pyrimido[4,5-d]pyridazin-5(6H)-one]",,,,27,0.201,0.269,
"Cc1cccc(F)c1-n1c(=O)c2cnc(Nc3ccc(N4CCN(C)CC4)c(Cl)c3)nc2c2nccn21 [Example 51, 6-(2-fluoro-6-methylphenyl)-2-((3-chloro-4-(4-methylpiperazin-1-yl)phenyl)amino)imidazo[1,2-b]pyrimido[4,5-d]pyridazin-5(6H)-one]",88,0.998,1.22,,,,
"Cc1cc(Nc2ncc3c(=O)n(-c4c(Cl)cccc4Br)n4ccnc4c3n2)ccc1N1CCN(C)CC1 [Example 46, 6-(2-bromo-6-chlorophenyl)-2-((3-methyl-4-(4-methylpiperazin-1-yl)phenyl)amino)imidazo[1,2-b]pyrimido[4,5-d]pyridazin-5(6H)-one]",92,0.242,0.271,17,,,
"Cc1cc(Nc2ncc3c(=O)n(-c4c(Cl)cccc4Cl)n4ccnc4c3n2)ccc1N1CCC(N(C)C)CC1 [Example 36, 6-(2,6-dichlorophenyl)-2-((3-methyl-4-(4-(dimethylamino)piperidin-1-yl)phenyl)amino)imidazo[1,2-b]pyrimido[4,5-d]pyridazin-5(6H)-one]",98,,,22,0.206,0.135,
"Cc1cc(Nc2ncc3c(=O)n(-c4c(Cl)cccc4Cl)n4cc(C(C)C)nc4c3n2)ccc1N1CCC(N(C)C)CC1 [Example 62, 6-(2,6-dichlorophenyl)-2-((3-methyl-4-(4-(dimethylamino)piperidin-1-yl)phenyl)amino)-9-isopropylimidazo[1,2-b]pyrimido[4,5-d]pyridazin-5(6H)-one]",,0.62,0.197,7,,,
"Cc1cc(Nc2ncc3c(=O)n(-c4c(Cl)cccc4Cl)n4ccnc4c3n2)cc2c1CCN(C)C2 [Example 44, 6-(2,6-dichlorophenyl)-2-((2,5-dimethyl-1,2,3,4-tetrahydroisoquinolin-7-yl)amino)imidazo[1,2-b]pyrimido[4,5-d]pyridazin-5(6H)-one]",,,,4,0.371,0.164,
C=CCn1c(=O)c2cnc(Nc3ccc(N4CCN(C)CC4)cc3)nc2n1-c1cccc(C(C)(C)O)n1 [AZD1775],,0.154,0.117,28,,,"response rate ([1]; TP53 wild-type patients (n=33)): 12%; safety and tolerability ([1]; alone or in combination with chemotherapy, at a certain dose): safe and tolerable; partial response [1, 3]: 10%; stable disease as the best response [1, 3]: 53%; response rate ([1]; patients with TP53 mutation (n=19)): 21%"
